# Measured values: patent CN107801692A, “一种氯胺酮诱导精神分裂症动物模型及其机制研究” (Kunming Medical University, priority 2017, dated 2018)
# Experiments:
# [1] = test system: SOD; assay: Brain tissue SOD determination; format: in vivo, Kunming mouse; conditions: 25, 50, 100 mg/kg, i.p., once daily for 7 days; with increasing dose
# [2] = test system: NOX4 protein (NOX4蛋白); assay: NOX4 protein expression (immunohistochemistry); format: in vivo, Kunming mouse; conditions: i.p.
# [3] = test system: mice (小鼠); assay: Y-maze test (Y型迷宫实验), learning and memory; format: in vivo, Kunming mouse; conditions: medium and large dose (50, 100 mg/kg), i.p., once daily for 7 days; P<0.01
# [4] = test system: depressed patients (抑郁患者); conditions: 0.5 mg/kg; Liebrenz et al.; cited from earlier work
# [5] = test system: rats (大鼠); conditions: repeated injection; Trujillo et al.; cited from earlier work
# [6] = test system: SOD; assay: Serum SOD determination; format: in vivo, Kunming mouse; conditions: 25, 50, 100 mg/kg, i.p., once daily for 7 days; with increasing dose
# [7] = test system: mice (小鼠); assay: Stereotyped behaviour (刻板行为); format: in vivo, Kunming mouse; conditions: medium and large dose (50, 100 mg/kg), i.p., P<0.01
# [8] = test system: mice (小鼠); assay: Pole climbing test (爬杆实验), ataxia; format: in vivo, Kunming mouse; conditions: medium and large dose (50, 100 mg/kg), i.p., once daily for 7 days; P<0.01
# [9] = test system: mice (小鼠); assay: Suspension test (悬吊实验), limb weakness; format: in vivo, Kunming mouse; conditions: i.p., single administration (day 1)
# [10] = test system: mice (小鼠); assay: Open field test (旷场实验), hyperlocomotion; format: in vivo, Kunming mouse; conditions: medium and large dose (50, 100 mg/kg), i.p., single administration (day 1); P<0.01
# [11] = test system: mice (小鼠); assay: Schizophrenia-like symptoms overall (behavioural tests together); format: in vivo, Kunming mouse; conditions: i.p.
# [12] = 25, 50, 100 mg/kg, single or repeated administration
structure (smiles),measurement,setting,value
CNC1(c2ccccc2Cl)CCCCC1=O (stereo not drawn) [氯胺酮],"brain tissue SOD activity, dose trend",[1],逐渐降低
same,"NOX4 protein expression, dose dependence","[2]; 25, 50, 100 mg/kg",有一定的剂量依赖趋势
same,"NOX4 protein expression, pairwise comparison among dose groups","[2]; 25, 50, 100 mg/kg, P<0.01",具有显著性差异
same,NOX4 protein expression,"[2]; different doses of ketamine (25, 50, 100 mg/kg), P<0.01",显著增加
same,learning and memory ability,[3],学习记忆能力下降
same,symptoms of depressed patients,[4],显著改善
same,activity of rats,[5],活动增多
same,"serum SOD activity, dose trend",[6],逐渐降低
same,stereotyped behaviour,[7]; once daily for 7 days,刻板行为增加
same,stereotyped behaviour,[7]; single administration (day 1),刻板行为
same,ataxia,[8],共济失调现象
same,limb weakness,"[9]; medium and large dose (50, 100 mg/kg), P<0.01",四肢无力
same,limb weakness,"[9]; small dose 25 mg/kg, P<0.05",产生四肢无力
same,hyperlocomotion,[10],明显的运动亢进
same,schizophrenia-like symptoms,[11]; [12],均可诱导小鼠产生类似精神分裂症的症状
same,"schizophrenia-like symptoms, dose dependence",[11]; [12],具有一定的剂量依赖趋势
same,stability of part of the symptoms,[11]; after 7 days of repeated administration,部分症状具有更好的稳定性
same,schizophrenia-like symptoms,[11]; large dose 100 mg/kg,更为明显
